Test results from the NIST ThermoML archive (doi:10.1021/je501041r).
± gives the expanded uncertainty stated by the source.

Assay: xn = mol fraction of the nth substance listed
Settings: 101 kPa, Liquid; for viscosity: Capillary tube (Ostwald / Ubbelohde) method; for mass density: Vibrating tube method

CC(C)CC(C)(C)C [2,2,4-trimethylpentane] + CCCO
Settings	mass density [kg/m3]	viscosity [mPa·s]
298.15 K, x1 = 0.02	795.39 ± 2	–
298.15 K, x1 = 0.04	790.82 ± 2	–
298.15 K, x1 = 0.06	786.22 ± 2	–
298.15 K, x1 = 0.1	777.82 ± 2	1.518 ± 0.018
298.15 K, x1 = 0.2	759.71 ± 2	1.231 ± 0.014
298.15 K, x1 = 0.3	744.88 ± 2	1.007 ± 0.012
298.15 K, x1 = 0.4	732.42 ± 2	0.84 ± 0.01
298.15 K, x1 = 0.4999	721.93 ± 2	0.718 ± 0.008
298.15 K, x1 = 0.5996	712.88 ± 2	0.644 ± 0.008
298.15 K, x1 = 0.6998	704.9 ± 2	0.572 ± 0.007
298.15 K, x1 = 0.7995	698.16 ± 2	0.519 ± 0.006
298.15 K, x1 = 0.9	692.36 ± 2	0.491 ± 0.006
298.15 K, x1 = 1	687.82 ± 2	0.478 ± 0.006
303.15 K, x1 = 0.02	791.36 ± 2	–
303.15 K, x1 = 0.04	786.77 ± 2	–
303.15 K, x1 = 0.06	782.15 ± 2	–
303.15 K, x1 = 0.1	773.72 ± 2	1.361 ± 0.016
303.15 K, x1 = 0.2	755.54 ± 2	1.113 ± 0.013
303.15 K, x1 = 0.3	740.67 ± 2	0.909 ± 0.011
303.15 K, x1 = 0.4	728.17 ± 2	0.769 ± 0.009
303.15 K, x1 = 0.4999	717.66 ± 2	0.664 ± 0.008
303.15 K, x1 = 0.5996	708.61 ± 2	0.585 ± 0.007
303.15 K, x1 = 0.6998	700.62 ± 2	0.531 ± 0.006
303.15 K, x1 = 0.7995	693.9 ± 2	0.488 ± 0.006
303.15 K, x1 = 0.9	688.13 ± 2	0.464 ± 0.006
303.15 K, x1 = 1	683.68 ± 2	0.453 ± 0.005
308.15 K, x1 = 0.02	787.26 ± 2	–
308.15 K, x1 = 0.04	782.66 ± 2	–
308.15 K, x1 = 0.06	778.03 ± 2	–
308.15 K, x1 = 0.1	769.57 ± 2	1.223 ± 0.014
308.15 K, x1 = 0.2	751.33 ± 2	1.004 ± 0.012
308.15 K, x1 = 0.3	736.41 ± 2	0.831 ± 0.01
308.15 K, x1 = 0.4	723.88 ± 2	0.709 ± 0.008
308.15 K, x1 = 0.4999	713.35 ± 2	0.613 ± 0.007
308.15 K, x1 = 0.5996	704.28 ± 2	0.543 ± 0.006
308.15 K, x1 = 0.6998	696.31 ± 2	0.5 ± 0.006
308.15 K, x1 = 0.7995	689.61 ± 2	0.46 ± 0.006
308.15 K, x1 = 0.9	683.86 ± 2	0.438 ± 0.005
308.15 K, x1 = 1	679.52 ± 2	0.429 ± 0.005
313.15 K, x1 = 0.02	783.12 ± 2	–
313.15 K, x1 = 0.04	778.51 ± 2	–
313.15 K, x1 = 0.06	773.86 ± 2	–
313.15 K, x1 = 0.1	765.38 ± 2	1.1 ± 0.013
313.15 K, x1 = 0.2	747.08 ± 2	0.92 ± 0.011
313.15 K, x1 = 0.3	732.1 ± 2	0.758 ± 0.009
313.15 K, x1 = 0.4	719.54 ± 2	0.648 ± 0.008
313.15 K, x1 = 0.4999	708.99 ± 2	0.569 ± 0.007
313.15 K, x1 = 0.5996	699.91 ± 2	0.51 ± 0.006
313.15 K, x1 = 0.6998	691.95 ± 2	0.467 ± 0.006
313.15 K, x1 = 0.7995	685.26 ± 2	0.434 ± 0.005
313.15 K, x1 = 0.9	679.55 ± 2	0.414 ± 0.005
313.15 K, x1 = 1	675.32 ± 2	0.408 ± 0.005
318.15 K, x1 = 0.02	778.94 ± 2	–
318.15 K, x1 = 0.04	774.31 ± 2	–
318.15 K, x1 = 0.06	769.64 ± 2	–
318.15 K, x1 = 0.1	761.14 ± 2	0.994 ± 0.012
318.15 K, x1 = 0.2	742.76 ± 2	0.833 ± 0.01
318.15 K, x1 = 0.3	727.73 ± 2	0.693 ± 0.008
318.15 K, x1 = 0.4	715.13 ± 2	0.596 ± 0.007
318.15 K, x1 = 0.4999	704.58 ± 2	0.529 ± 0.006
318.15 K, x1 = 0.5996	695.48 ± 2	0.479 ± 0.006
318.15 K, x1 = 0.6998	687.53 ± 2	0.439 ± 0.005
318.15 K, x1 = 0.7995	680.87 ± 2	0.41 ± 0.005
318.15 K, x1 = 0.9	675.2 ± 2	0.393 ± 0.005
318.15 K, x1 = 1	671.1 ± 2	0.388 ± 0.005
323.15 K, x1 = 0.02	774.7 ± 2	–
323.15 K, x1 = 0.04	770.05 ± 2	–
323.15 K, x1 = 0.06	765.36 ± 2	–
323.15 K, x1 = 0.1	756.84 ± 2	0.903 ± 0.011
323.15 K, x1 = 0.2	738.39 ± 2	0.767 ± 0.009
323.15 K, x1 = 0.3	723.3 ± 2	0.648 ± 0.008
323.15 K, x1 = 0.4	710.67 ± 2	0.554 ± 0.007
323.15 K, x1 = 0.4999	700.11 ± 2	0.491 ± 0.006
323.15 K, x1 = 0.5996	691 ± 2	0.445 ± 0.005
323.15 K, x1 = 0.6998	683.07 ± 2	0.413 ± 0.005
323.15 K, x1 = 0.7995	676.44 ± 2	0.388 ± 0.005
323.15 K, x1 = 0.9	670.81 ± 2	0.373 ± 0.005
323.15 K, x1 = 1	666.85 ± 2	0.369 ± 0.005
